Experimental data taken from patent US20220030882A1, “Composition and Method to Remove Parasites From Fish and to Prevent or Treat Infestation or Infection of Parasites on Fish” (priority 2018, published 2022).

Assays:
[1] = cited from earlier work
salmon lice = tested on: salmon lice; parameters: species or system Lepeophteirus salmonis; details: in vivo

Structure (SMILES): COc1cc(CNC(=O)CCCC/C=C/C(C)C)ccc1O [capsaicin]
- solubility in ethanol and other hydrophobic solvents ([1]; pure capsaicin): soluble
- solubility in water ([1]; water): not soluble
- effect on the lice (salmon lice): has an effect
- sum of the effects on lice of each agent on its own versus the combination of capsaicin and acetic acid (salmon lice): considerably lower
